Laboratory results from patent US20250152473A1, “STABLE PLINABULIN FORMULATIONS AND METHODS OF THEIR PREPARATION AND USE” (BeyondSpring Pharmaceuticals, Inc., priority 2022, published 2025).

Assays:
[1] = Stress test of solid plinabulin, 30 days light storage vs dark control; format: physicochemical
Excerpt: This comparative example reports a plinabulin stress test of solid plinabulin showing relative stability to light storage for 30 days. […]

[2] = Light sensitivity study of solid plinabulin; format: physicochemical
Excerpt: Table 8 illustrates the stability of solid plinabulin in a light sensitivity study.

[3] = solid, minimum of 1.2 million LUX hours and 200 watts/square meter

CC(C)(C)c1[nH]cnc1/C=c1\[nH]c(=O)/c(=C/c2ccccc2)[nH]c1=O [Plinabulin, (3Z,6Z)-3-Benzylidene-6-{[5-(2-methyl-2-propanyl)-1H-imidazol-4-yl]methylene}-2,5-piperazinedione]
Alcohol Impurity by HPLC ([1]; Control Sample (dark), 0 days): 0.02%
Amide Impurity by HPLC ([1]; Control Sample (dark), 0 days): 0.02%
Appearance ([1]; Control Sample (dark), 0 days): Yellow
Assay by HPLC ([1]; Control Sample (dark), 0 days): 98.9% w/w
Cyano Impurity by HPLC ([1]; Control Sample (dark), 0 days): 0.1%
De-Carboxylate Impurity by HPLC ([1]; Control Sample (dark), 0 days): 0.1%
Ether Impurity by HPLC ([1]; Control Sample (dark), 0 days): 0.02%
Impurity-489-1 by HPLC ([1]; Control Sample (dark), 0 days): 0.1%
Impurity-489-2 by HPLC ([1]; Control Sample (dark), 0 days): 0.1%
Other Unspecified Impurity by HPLC ([1]; Control Sample (dark), 0 days): 0.02%
Total Impurities by HPLC ([1]; Control Sample (dark), 0 days): 0.3%
Water ([1]; Control Sample (dark), 0 days): 0.1%
Alcohol Impurity by HPLC ([1]; Control Sample (dark), 5 days): 0.02%
Amide Impurity by HPLC ([1]; Control Sample (dark), 5 days): 0.02%
Appearance ([1]; Control Sample (dark), 5 days): Yellow
Assay by HPLC ([1]; Control Sample (dark), 5 days): 98.42% w/w
Cyano Impurity by HPLC ([1]; Control Sample (dark), 5 days): 0.11%
De-Carboxylate Impurity by HPLC ([1]; Control Sample (dark), 5 days): 0.09%
Ether Impurity by HPLC ([1]; Control Sample (dark), 5 days): 0.02%
Impurity-489-1 by HPLC ([1]; Control Sample (dark), 5 days): 0.16%
Impurity-489-2 by HPLC ([1]; Control Sample (dark), 5 days): 0.02%
Other Unspecified Impurity by HPLC ([1]; Control Sample (dark), 5 days): 0.02%
Total Impurities by HPLC ([1]; Control Sample (dark), 5 days): 0.36%
Water ([1]; Control Sample (dark), 5 days): 0.05%
Alcohol Impurity by HPLC ([1]; Control Sample (dark), 10 days): 0.02%
Amide Impurity by HPLC ([1]; Control Sample (dark), 10 days): 0.02%
Appearance ([1]; Control Sample (dark), 10 days): Yellow
Assay by HPLC ([1]; Control Sample (dark), 10 days): 99.33% w/w
Cyano Impurity by HPLC ([1]; Control Sample (dark), 10 days): 0.12%
De-Carboxylate Impurity by HPLC ([1]; Control Sample (dark), 10 days): 0.09%
Ether Impurity by HPLC ([1]; Control Sample (dark), 10 days): 0.02%
Impurity-489-1 by HPLC ([1]; Control Sample (dark), 10 days): 0.12%
Impurity-489-2 by HPLC ([1]; Control Sample (dark), 10 days): 0.02%
Other Unspecified Impurity by HPLC ([1]; Control Sample (dark), 10 days): 0.02%
Total Impurities by HPLC ([1]; Control Sample (dark), 10 days): 0.32%
Water ([1]; Control Sample (dark), 10 days): 0.05%
Alcohol Impurity by HPLC ([1]; Control Sample (dark), 30 days): 0.02%
Amide Impurity by HPLC ([1]; Control Sample (dark), 30 days): 0.02%
Appearance ([1]; Control Sample (dark), 30 days): Yellow
Assay by HPLC ([1]; Control Sample (dark), 30 days): 99.29% w/w
Cyano Impurity by HPLC ([1]; Control Sample (dark), 30 days): 0.11%
De-Carboxylate Impurity by HPLC ([1]; Control Sample (dark), 30 days): 0.09%
Ether Impurity by HPLC ([1]; Control Sample (dark), 30 days): 0.02%
Impurity-489-1 by HPLC ([1]; Control Sample (dark), 30 days): 0.15%
Impurity-489-2 by HPLC ([1]; Control Sample (dark), 30 days): 0.02%
Other Unspecified Impurity by HPLC ([1]; Control Sample (dark), 30 days): 0.05%
Total Impurities by HPLC ([1]; Control Sample (dark), 30 days): 0.36%
Water ([1]; Control Sample (dark), 30 days): 0.05%
Alcohol Impurity by HPLC ([1]; Photo Sample, 0 days): 0.02%
Amide Impurity by HPLC ([1]; Photo Sample, 0 days): 0.02%
Assay by HPLC ([1]; Photo Sample, 0 days): 98.9% w/w
Cyano Impurity by HPLC ([1]; Photo Sample, 0 days): 0.1%
De-Carboxylate Impurity by HPLC ([1]; Photo Sample, 0 days): 0.1%
Ether Impurity by HPLC ([1]; Photo Sample, 0 days): 0.02%
Impurity-489-1 by HPLC ([1]; Photo Sample, 0 days): 0.1%
Impurity-489-2 by HPLC ([1]; Photo Sample, 0 days): 0.1%
Other Unspecified Impurity by HPLC ([1]; Photo Sample, 0 days): 0.02%
Total Impurities by HPLC ([1]; Photo Sample, 0 days): 0.3%
Water ([1]; Photo Sample, 0 days): 0.1%
Alcohol Impurity by HPLC ([1]; Photo Sample, 5 days): 0.02%
Amide Impurity by HPLC ([1]; Photo Sample, 5 days): 0.02%
Assay by HPLC ([1]; Photo Sample, 5 days): 99.37% w/w
Cyano Impurity by HPLC ([1]; Photo Sample, 5 days): 0.11%
De-Carboxylate Impurity by HPLC ([1]; Photo Sample, 5 days): 0.09%
Ether Impurity by HPLC ([1]; Photo Sample, 5 days): 0.02%
Impurity-489-1 by HPLC ([1]; Photo Sample, 5 days): 0.10%
Impurity-489-2 by HPLC ([1]; Photo Sample, 5 days): 0.05%
Other Unspecified Impurity by HPLC ([1]; Photo Sample, 5 days): 0.02%
Total Impurities by HPLC ([1]; Photo Sample, 5 days): 0.3%
Water ([1]; Photo Sample, 5 days): 0.05%
Alcohol Impurity by HPLC ([1]; Photo Sample, 10 days): 0.02%
Amide Impurity by HPLC ([1]; Photo Sample, 10 days): 0.02%
Assay by HPLC ([1]; Photo Sample, 10 days): 99.36% w/w
Cyano Impurity by HPLC ([1]; Photo Sample, 10 days): 0.12%
De-Carboxylate Impurity by HPLC ([1]; Photo Sample, 10 days): 0.08%
Ether Impurity by HPLC ([1]; Photo Sample, 10 days): 0.02%
Impurity-489-1 by HPLC ([1]; Photo Sample, 10 days): 0.07%
Impurity-489-2 by HPLC ([1]; Photo Sample, 10 days): 0.05%
Other Unspecified Impurity by HPLC ([1]; Photo Sample, 10 days): 0.02%
Total Impurities by HPLC ([1]; Photo Sample, 10 days): 0.27%
Water ([1]; Photo Sample, 10 days): 0.05%
Alcohol Impurity by HPLC ([1]; Photo Sample, 30 days): 0.02%
Amide Impurity by HPLC ([1]; Photo Sample, 30 days): 0.02%
Assay by HPLC ([1]; Photo Sample, 30 days): 99.17% w/w
Cyano Impurity by HPLC ([1]; Photo Sample, 30 days): 0.11%
De-Carboxylate Impurity by HPLC ([1]; Photo Sample, 30 days): 0.09%
Ether Impurity by HPLC ([1]; Photo Sample, 30 days): 0.02%
Impurity-489-1 by HPLC ([1]; Photo Sample, 30 days): 0.06%
Impurity-489-2 by HPLC ([1]; Photo Sample, 30 days): 0.05%
Other Unspecified Impurity by HPLC ([1]; Photo Sample, 30 days): 0.1%
Total Impurities by HPLC ([1]; Photo Sample, 30 days): 0.6%
Water ([1]; Photo Sample, 30 days): 0.05%
Light sensitivity ([2]; solid plinabulin): not light sensitive
Appearance ([2]; solid, Dark Control): Yellow Solid.
HPLC (% AUC) at 214 nm ([2]; solid, Dark Control): 99.3% AUC
HPLC (% AUC) at 250 nm ([2]; solid, Dark Control): 99.5% AUC
HPLC (% AUC) at 370 nm ([2]; solid, Dark Control): 99.4% AUC
Impurity at 214 nm, rrt 0.86 ([2]; solid, Dark Control): 0.21% @rrt 0.86
Impurity at 214 nm, rrt 0.97 ([2]; solid, Dark Control): 0.33% @rrt 0.97
Impurity at 214 nm, rrt 1.17 ([2]; solid, Dark Control): 0.06% @rrt 1.17
Impurity at 214 nm, rrt 1.27 ([2]; solid, Dark Control): 0.04% @rrt 1.27
KF ([2]; solid, Dark Control): 5.1%
Single impurity >1% AUC at 214 nm ([2]; solid, Dark Control): No single impurity
Appearance ([2]; solid, Time 0): Yellow Solid.
HPLC (% AUC) at 214 nm ([2]; solid, Time 0): 99.2% AUC
HPLC (% AUC) at 250 nm ([2]; solid, Time 0): 99.4% AUC
HPLC (% AUC) at 370 nm ([2]; solid, Time 0): 99.4% AUC
Impurity at 214 nm, rrt 0.86 ([2]; solid, Time 0): 0.21% @rrt 0.86
Impurity at 214 nm, rrt 0.96 ([2]; solid, Time 0): 0.36% @rrt 0.96
Impurity at 214 nm, rrt 1.14 ([2]; solid, Time 0): 0.06% @rrt 1.14
Impurity at 214 nm, rrt 1.18 ([2]; solid, Time 0): 0.05% @rrt 1.18
Impurity at 214 nm, rrt 1.19 ([2]; solid, Time 0): 0.02% @rrt 1.19
Impurity at 214 nm, rrt 1.28 ([2]; solid, Time 0): 0.02% @rrt 1.28
KF ([2]; solid, Time 0): 5.1%
Single impurity >1% AUC at 214 nm ([2]; solid, Time 0): No single impurity
Appearance [2, 3]: Yellow Solid.
HPLC (% AUC) at 214 nm [2, 3]: 99.4% AUC
HPLC (% AUC) at 250 nm [2, 3]: 99.4% AUC
HPLC (% AUC) at 370 nm [2, 3]: 99.5% AUC
Impurity at 214 nm, rrt 0.40 [2, 3]: 0.02% @rrt 0.40
Impurity at 214 nm, rrt 0.49 [2, 3]: 0.05% @rrt 0.49
Impurity at 214 nm, rrt 0.68 [2, 3]: 0.02% @rrt 0.68
Impurity at 214 nm, rrt 0.86 [2, 3]: 0.08% @rrt 0.86
Impurity at 214 nm, rrt 0.97 [2, 3]: 0.29% @rrt 0.97
Impurity at 214 nm, rrt 1.17 [2, 3]: 0.05% @rrt 1.17
Impurity at 214 nm, rrt 1.27 [2, 3]: 0.02% @rrt 1.27
KF [2, 3]: 5.0%
Single impurity >1% AUC at 214 nm [2, 3]: No single impurity
